{
  "source": "patent US20230047816A1",
  "about": "(priority 2018, published 2023)",
  "type_in_all_cases": "cell-based",
  "key": {"BT-549": {"tested_on": "BT-549", "assay": "Combination with anticancer agents, BT-549", "conditions": "Homo sapiens, anticancer agent alone", "experimental": "(§1) All cells can be incubated in the plates overnight at 37° C., 5% 002 incubator with different medium."}, "Hs-578T": {"tested_on": "Hs-578T", "assay": "Combination with anticancer agents, Hs-578T", "conditions": "Homo sapiens, anticancer agent alone", "experimental": "as §1"}, "MCF-7": {"tested_on": "MCF-7", "assay": "Combination with anticancer agents, MCF-7", "conditions": "Homo sapiens, MCF7, anticancer agent alone", "experimental": "as §1"}, "MDA-MB-231": {"tested_on": "MDA-MB-231", "assay": "Combination with anticancer agents, MDA-MB-231", "conditions": "Homo sapiens, anticancer agent alone", "experimental": "as §1"}, "T-47D": {"tested_on": "T-47D", "assay": "Combination with anticancer agents, T-47D", "conditions": "Homo sapiens, T47D, anticancer agent alone", "experimental": "as §1"}},
  "data": [
    {"smiles": "NC(=O)c1cccc2cn(-c3ccc([C@@H]4CCCNC4)cc3)nc12", "note": "[Niraparib]", "values": [
      {"measurement": "IC50", "setting": "BT-549", "value": 31, "unit": "µM"},
      {"measurement": "IC50", "setting": "Hs-578T", "value": 36, "unit": "µM"},
      {"measurement": "IC50", "setting": "MCF-7", "value": 14.5, "unit": "µM"},
      {"measurement": "IC50", "setting": "MDA-MB-231", "value": 14.6, "unit": "µM"},
      {"measurement": "IC50", "setting": "T-47D", "value": 21, "unit": "µM"}
    ]}
  ]
}
